Results from patent US20130143929A1, “FUNGICIDAL IMIDAZOLES” (EI DU PONT DE NEMOURS AND COMPANY, priority 2010, published 2013).
Marks after values point to notes of the source that are not given here.

Assays:
Type in all cases: in vivo
[1] = system: Puccinia recondite f. sp. tritici (the causal agent of wheat leaf rust); assay: Test A: wheat leaf rust, preventive spray on wheat seedlings, visual disease rating; conditions: for Test A rating (100 = 100% disease control, 0 = no disease control relative to the controls): wheat leaf rust, preventive spray on wheat seedlings
Text: (§1) General protocol for preparing test suspensions for Tests A-D: the test compounds were first dissolved in acetone in an amount equal to 3% of the final volume and then suspended at the desired concentration (in ppm) in acetone and purified water (50/50 mix by volume) containing 250 ppm of the surfactant Trem® 014 (polyhydric alcohol esters). The resulting test suspensions were then used in Tests A-D. Spraying a 200 ppm test suspension to the point of run-off on the test plants was the equivalent of a rate of 800 g/ha.
The test suspension was sprayed to the point of run-off on wheat seedlings. The following day the seedlings were inoculated with a spore suspension of Puccinia recondite f. sp. tritici (the causal agent of wheat leaf rust) and incubated in a saturated atmosphere at 20° C. for 24 h, and then moved to a growth chamber at 20° C. for 7 days, after which time visual disease ratings were made.
(§2) Results for Tests A-E are given in Table A. In the Table, a rating of 100 indicates 100% disease control and a rating of 0 indicates no disease control (relative to the controls). A dash (—) indicates no test results. An asterisk “*” next to the rating value indicates a 40 ppm test suspension was used.

[2] = system: Botrytis cinerea (the causal agent of tomato Botrytis); assay: Test C: tomato Botrytis, preventive spray on tomato seedlings, visual disease rating; conditions: for Test C rating (100 = 100% disease control, 0 = no disease control relative to the controls): tomato Botrytis, preventive spray on tomato seedlings
Text: as §1
(§3) The test suspension was sprayed to the point of run-off on tomato seedlings. The following day the seedlings were inoculated with a spore suspension of Botrytis cinerea (the causal agent of tomato Botrytis) and incubated in a saturated atmosphere at 20° C. for 48 h, and then moved to a growth chamber at 24° C. for 3 days, after which time visual disease ratings were made.
as §2

[3] = system: Septoria tritici (the causal agent of wheat leaf blotch); assay: Test B: wheat leaf blotch, preventive spray on wheat seedlings, visual disease rating; conditions: for Test B rating (100 = 100% disease control, 0 = no disease control relative to the controls): wheat leaf blotch, preventive spray on wheat seedlings
Text: as §1
as §3, with “wheat” for “tomato”, “Septoria tritici” for “Botrytis cinerea”, “wheat leaf blotch)” for “tomato Botrytis)”, “24°” for “20°”, “20°” for “24°”, “19” for “3”
as §2

[4] = system: Blumeria graminis f. sp. tritici (also known as Erysiphe graminis f. sp. tritici, the causal agent of wheat powdery mildew); assay: Test D: wheat powdery mildew, preventive spray on wheat seedlings, visual disease rating; conditions: for Test D rating (100 = 100% disease control, 0 = no disease control relative to the controls): wheat powdery mildew, preventive spray on wheat seedlings
Text: as §1
The test suspension was sprayed to the point of run-off on wheat seedlings. The following day the seedlings were inoculated with a spore dust of Blumeria graminis f. sp. tritici, (also known as Erysiphe graminis f. sp. tritici, the causal agent of wheat powdery mildew) and incubated in a growth chamber at 20° C. for 8 days, after which time visual disease ratings were made.
as §2

[5] = no asterisk (standard test suspension concentration, not 40 ppm)
[6] = asterisk: 40 ppm test suspension
[7] = no asterisk: standard test suspension concentration, 100 = 100% disease control, 0 = no control relative to controls

Cc1nc(Br)c(C(O)c2c(F)cc(F)cc2F)n1-c1ccc(F)cc1Br (centres unmarked) [compound 176]
Test A rating (100 = 100% disease control, 0 = no disease control relative to the controls) [1, 5]: 100% | Test C rating (100 = 100% disease control, 0 = no disease control relative to the controls) [2, 5]: 100% | Test B rating (100 = 100% disease control, 0 = no disease control relative to the controls) [3, 5]: 100% | Test D rating (100 = 100% disease control, 0 = no disease control relative to the controls) [4, 5]: 96%

COc1ccc(-n2c(C(O)c3ccc(F)cc3Cl)cnc2C)c(OC)c1 (centres unmarked) [compound 214]
Test A rating (100 = 100% disease control, 0 = no disease control relative to the controls) [1, 6]: 0* % | Test C rating (100 = 100% disease control, 0 = no disease control relative to the controls) [2, 6]: 0* % | Test B rating (100 = 100% disease control, 0 = no disease control relative to the controls) [3, 6]: 0* % | Test D rating (100 = 100% disease control, 0 = no disease control relative to the controls) [4, 6]: 0* %

Cc1ncc(C(O)c2ccc(F)cc2Cl)n1-c1ccc(F)cc1F (centres unmarked) [compound 360]
Test A rating (100 = 100% disease control, 0 = no disease control relative to the controls) [1, 5]: 99% | Test C rating (100 = 100% disease control, 0 = no disease control relative to the controls) [2, 5]: 67% | Test B rating (100 = 100% disease control, 0 = no disease control relative to the controls) [3, 5]: 93% | Test D rating (100 = 100% disease control, 0 = no disease control relative to the controls) [4, 5]: 0%

Cc1nc(Br)c(C(O)c2c(Cl)cccc2Cl)n1-c1c(F)cccc1F (centres unmarked) [compound 194]
Test A rating (100 = 100% disease control, 0 = no disease control relative to the controls) [1, 6]: 99* % | Test C rating (100 = 100% disease control, 0 = no disease control relative to the controls) [2, 6]: 77* % | Test B rating (100 = 100% disease control, 0 = no disease control relative to the controls) [3, 6]: 100* % | Test D rating (100 = 100% disease control, 0 = no disease control relative to the controls) [4, 6]: 0* %

COc1ccc(C(O)c2c(Br)ncn2-c2ccc(F)cc2Cl)c(F)c1 (racemic) [compound 230]
Test A rating (100 = 100% disease control, 0 = no disease control relative to the controls) [1, 6]: 97* % | Test C rating (100 = 100% disease control, 0 = no disease control relative to the controls) [2, 6]: 99* % | Test B rating (100 = 100% disease control, 0 = no disease control relative to the controls) [3, 6]: 50* % | Test D rating (100 = 100% disease control, 0 = no disease control relative to the controls) [4, 6]: 0* %

Cc1nc(C)n(-c2c(F)cc(F)cc2F)c1C(O)c1ccc(F)cc1Cl (centres unmarked) [compound 169]
Test A rating (100 = 100% disease control, 0 = no disease control relative to the controls) [1, 6]: 100* % | Test C rating (100 = 100% disease control, 0 = no disease control relative to the controls) [2, 6]: 40* % | Test B rating (100 = 100% disease control, 0 = no disease control relative to the controls) [3, 6]: 100* % | Test D rating (100 = 100% disease control, 0 = no disease control relative to the controls) [4, 6]: 0* %

COc1ccc(C(O)c2c(Br)nc(C)n2-c2ccc(F)cc2Br)c(Cl)c1 (centres unmarked) [compound 324]
Test A rating (100 = 100% disease control, 0 = no disease control relative to the controls) [1, 6]: 100* % | Test C rating (100 = 100% disease control, 0 = no disease control relative to the controls) [2, 6]: 80* % | Test B rating (100 = 100% disease control, 0 = no disease control relative to the controls) [3, 6]: 94* % | Test D rating (100 = 100% disease control, 0 = no disease control relative to the controls) [4, 6]: 69* %

Cc1ncc(C(O)c2ccc(Cl)cc2)n1-c1ccc(F)cc1F (centres unmarked) [compound 378]
Test A rating (% disease control, wheat leaf rust) [1, 7]: 37% | Test C rating (% disease control, tomato Botrytis) [2, 7]: 0% | Test B rating (% disease control, wheat leaf blotch) [3, 7]: 74% | Test D rating (% disease control, wheat powdery mildew) [4, 7]: 0%

Cc1nc(Cl)n(-c2ccc(F)cc2F)c1C(O)c1ccc(Cl)cc1 (centres unmarked) [compound 163]
Test A rating (100 = 100% disease control, 0 = no disease control relative to the controls) [1, 5]: 98% | Test C rating (100 = 100% disease control, 0 = no disease control relative to the controls) [2, 5]: 100% | Test B rating (100 = 100% disease control, 0 = no disease control relative to the controls) [3, 5]: 100% | Test D rating (100 = 100% disease control, 0 = no disease control relative to the controls) [4, 5]: 13%

Cc1nc(Br)c(C(O)c2ccc(Cl)cc2Cl)n1-c1c(F)cccc1F (centres unmarked) [compound 202]
Test A rating (100 = 100% disease control, 0 = no disease control relative to the controls) [1, 6]: 98* % | Test C rating (100 = 100% disease control, 0 = no disease control relative to the controls) [2, 6]: 100* % | Test B rating (100 = 100% disease control, 0 = no disease control relative to the controls) [3, 6]: 100* % | Test D rating (100 = 100% disease control, 0 = no disease control relative to the controls) [4, 6]: 82* %

OC(c1ccc(F)cc1Cl)c1c(Br)nc(C2CC2)n1-c1c(F)cccc1Br (centres unmarked) [compound 150]
Test A rating (100 = 100% disease control, 0 = no disease control relative to the controls) [1, 5]: 85% | Test C rating (100 = 100% disease control, 0 = no disease control relative to the controls) [2, 5]: 0% | Test B rating (100 = 100% disease control, 0 = no disease control relative to the controls) [3, 5]: 100% | Test D rating (100 = 100% disease control, 0 = no disease control relative to the controls) [4, 5]: 27%
